From ChEMBL document CHEMBL2021886, “Identification of a series of 1,3,4-oxadiazol-2-amines as potent alpha-7 agonists with efficacy in the novel object recognition model of cognition” (Bioorg Med Chem Lett, 2012)

Legend:
[1] = Blood clearance in Sprague-Dawley rat at 1 mg/kg, iv; format: ADME, organism-based; parameters: dose 1 mg/kg, route intravenous
[2] = Ratio of drug level in brain to blood in Lister Hooded rat at 3 mg/kg, po after 3 hrs; format: ADME, organism-based; parameters: dose 3 mg/kg, route oral
[3] = Drug uptake in Lister Hooded rat blood at 3 mg/kg, po after 3 hrs; format: ADME, organism-based; parameters: dose 3 mg/kg, route oral; conditions: read-out: Drug uptake
[4] = test system: Liver; test: Clearance in rat liver assessed per gram of tissue; format: ADME, tissue-based; conditions: in vivo
[5] = Half life in Sprague-Dawley rat at 1 mg/kg, iv; format: ADME, organism-based; parameters: dose 1 mg/kg, route intravenous; conditions: in vivo
[6] = test system: Liver; test: Clearance in human liver assessed per gram of tissue; format: ADME, tissue-based
[7] = Intrinsic permeability of the compound in MDCK cells expressing MDR1; format: ADME, cell-based, Canis lupus familiaris; conditions: dog
[8] = test system: Blood; test: Drug level in novel object recognition model of rat blood at 0.1 mg/kg, po; format: ADME, organism-based; parameters: dose 0.1 mg/kg, route oral; conditions: in vivo, read-out: Drug uptake

Row | clearance [1] [mL/min/kg] | Kp at 3 h [2] | concentration at 3 h [3] [nM] | CLH [4] [mL/min/g] | half-life [5] [h] | CLH [6] [mL/min/g] | Papp [7] [×10⁻⁶ cm/s] | concentration [8] [nM] | SMILES
1 | 28 | 0.4 | 270 | < 0.5 | 3.2 | < 0.3 |  |  | COc1cc(NC(=O)c2ccccc2F)ccc1-c1nnc(NCCCN2CCCCC2)o1.Cl
2 |  |  |  |  |  |  | 32.5 | 205 | COc1cc(NC(=O)c2ccccc2F)ccc1-c1nnc(NCCCN2CCCCC2)o1
3 | 41 | 0.12 | 294 | < 0.5 | 0.6 | 0.5 |  |  | COc1cc(NC(=O)c2ccccc2F)ccc1-c1nnc(NCCCN2CCOCC2)o1.Cl
4 | 67 | 1.7 | 205 | < 0.2 | 2.9 | 0.5 |  |  | Cl.O=C(Nc1ccc(-c2nnc(NCCCN3CCCCC3)o2)cc1)c1ccccc1F
